Assay results from patent publication US6054435A, “6-O-substituted macrolides having antibacterial activity” (priority 1999, dated 2000).
Converted amounts (≈) assume the structure as drawn.

Assays:
Assay in all cases: in vitro antibacterial activity (MIC), agar dilution
Assay type in all cases: cell-based
[1] = tested on: Candida albicans CCH 442; settings: organism code TT; BHI agar, 35-37° C., 20 to 24 hours; unit assumed
Outline: (§1)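 Agar dilution in BHI agar, twelve successive compound dilutions. Inoculum 1:100, or 1:10 for slow-growing strains (e.g. Streptococcus), replicator-spotted. Read by eye; MIC = lowest concentration with no growth, slight haze or sparsely isolated colonies relative to growth control.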

[2] = tested on: Enterococcus faecium ATCC 8043; settings: organism code II; BHI agar, 35-37° C., 20 to 24 hours; unit assumed
Outline: as §1

[3] = tested on: Escherichia coli DC-2; settings: organism code SS; BHI agar, 35-37° C., 20 to 24 hours; unit assumed
Outline: as §1

[4] = tested on: Escherichia coli JUHL; settings: organism code QQ; BHI agar, 35-37° C., 20 to 24 hours; unit assumed
Outline: as §1

[5] = tested on: Escherichia coli SS; settings: organism code RR; BHI agar, 35-37° C., 20 to 24 hours; unit assumed
Outline: as §1

[6] = tested on: Haemophilis Influenzae DILL AMP R; settings: organism code WW; BHI agar, 35-37° C., 20 to 24 hours; unit assumed
Outline: as §1

[7] = tested on: Micrococcus luteus ATCC 4698; settings: organism code PP; BHI agar, 35-37° C., 20 to 24 hours; unit assumed
Outline: (§2)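 Test compound serially diluted in Brain Heart Infusion agar across twelve plates; inocula of 1:100 dilution (1:10 for slow growers such as Streptococcus) applied by Steers replicator. MIC taken visually as lowest concentration giving no growth, slight haze or sparse isolated colonies versus drug-free growth control.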

[8] = tested on: Micrococcus luteus ATCC 9341; settings: organism code OO; BHI agar, 35-37° C., 20 to 24 hours; unit assumed
Outline: as §2

[9] = tested on: Mycobacterium smegmatis ATCC 114; settings: organism code UU; BHI agar, 35-37° C., 20 to 24 hours; unit assumed
Outline: as §1

[10] = tested on: Nocardia Asteroides ATCC9970; settings: organism code VV; BHI agar, 35-37° C., 20 to 24 hours; unit assumed
Outline: as §1

[11] = tested on: Staphylococcus aureus 1775; settings: organism code GG; BHI agar, 35-37° C., 20 to 24 hours; unit assumed
Outline: as §1

[12] = tested on: Staphylococcus aureus A-5278; settings: organism code CC; BHI agar, 35-37° C., 20 to 24 hours; unit assumed
Outline: as §1

[13] = tested on: Staphylococcus aureus A5177; settings: organism code BB; BHI agar, 35-37° C., 20 to 24 hours; unit assumed
Outline: as §1

[14] = tested on: Staphylococcus aureus ATCC 6538P; settings: organism code AA; BHI agar, 35-37° C., 20 to 24 hours; unit assumed
Outline: as §1

[15] = tested on: Staphylococcus aureus CMX 553; settings: organism code FF; BHI agar, 35-37° C., 20 to 24 hours; unit assumed
Outline: as §1

[16] = tested on: Staphylococcus aureus CMX 642A; settings: organism code DD; BHI agar, 35-37° C., 20 to 24 hours; unit assumed
Outline: as §1

[17] = tested on: Staphylococcus aureus NCTC10649M; settings: organism code EE; BHI agar, 35-37° C., 20 to 24 hours; unit assumed
Outline: as §1

[18] = tested on: Staphylococcus epidermidis 3519; settings: organism code HH; BHI agar, 35-37° C., 20 to 24 hours; unit assumed
Outline: as §1

[19] = tested on: Streptococcus Pneumonia 5649; settings: organism code ZZA; BHI agar, 35-37° C., 20 to 24 hours; unit assumed
Outline: as §1

[20] = tested on: Streptococcus Pneumonia 5979; settings: organism code ZZ; BHI agar, 35-37° C., 20 to 24 hours; unit assumed
Outline: as §1

[21] = tested on: Streptococcus Pneumonia ATCC6303; settings: organism code XX; BHI agar, 35-37° C., 20 to 24 hours; unit assumed
Outline: as §1

[22] = tested on: Streptococcus Pneumonia GYR 1171; settings: organism code YY; BHI agar, 35-37° C., 20 to 24 hours; unit assumed
Outline: as §1

[23] = tested on: Streptococcus agalactiae CMX 508; settings: organism code KK; BHI agar, 35-37° C., 20 to 24 hours; unit assumed
Outline: as §1

[24] = tested on: Streptococcus bovis A-5169; settings: organism code JJ; BHI agar, 35-37° C., 20 to 24 hours; unit assumed
Outline: as §1

[25] = tested on: Streptococcus pyogenes 930; settings: organism code MM; BHI agar, 35-37° C., 20 to 24 hours; unit assumed
Outline: as §1

[26] = tested on: Streptococcus pyogenes EES61; settings: organism code LL; BHI agar, 35-37° C., 20 to 24 hours; unit assumed
Outline: as §1

[27] = tested on: Streptococcus pyogenes PIU 2548; settings: organism code NN; BHI agar, 35-37° C., 20 to 24 hours; unit assumed
Outline: as §1

Compound | MIC [1] [µg/mL] | MIC [2] [µg/mL] | MIC [3] [µg/mL] | MIC [4] [µg/mL] | MIC [5] [µg/mL] | MIC [6] [µg/mL] | MIC [7] [µg/mL] | MIC [8] [µg/mL] | MIC [9] [µg/mL] | MIC [10] [µg/mL] | MIC [11] [µg/mL] | MIC [12] [µg/mL] | MIC [13] [µg/mL] | MIC [14] [µg/mL] | MIC [15] [µg/mL] | MIC [16] [µg/mL] | MIC [17] [µg/mL] | MIC [18] [µg/mL] | MIC [19] [µg/mL] | MIC [20] [µg/mL] | also measured
CC[C@H]1OC(=O)[C@H](C)C(=O)[C@H](C)[C@@H](O[C@@H]2O[C@H](C)C[C@H](N(C)C)[C@H]2O)[C@](C)(OCC#Cc2ccc(-c3ccccc3)s2)C[C@@H](C)C(=O)[C@H](C)[C@H]2NC(=O)O[C@@]21C [Example 13] | > 100 | 0.05 (≈ 0.0629 µM) | > 100 | > 100 | 3.1 (≈ 3.9 µM) | 32 (≈ 40.3 µM) | 0.2 (≈ 0.252 µM) | 0.05 (≈ 0.0629 µM) | 1.56 (≈ 1.96 µM) | 0.78 (≈ 0.981 µM) | > 100 | > 100 | 0.39 (≈ 0.491 µM) | 0.39 (≈ 0.491 µM) | 0.39 (≈ 0.491 µM) | 0.39 (≈ 0.491 µM) | 0.78 (≈ 0.981 µM) | 0.78 (≈ 0.981 µM) | 2 (≈ 2.52 µM) | 4 (≈ 5.03 µM) | MIC [21]: 0.25 µg/mL (≈ 0.314 µM); MIC [22]: 0.25 µg/mL (≈ 0.314 µM); MIC [23]: 0.1 µg/mL (≈ 0.126 µM); MIC [24]: 0.05 µg/mL (≈ 0.0629 µM); MIC [25]: 100 µg/mL (≈ 126 µM); MIC [26]: 0.02 µg/mL (≈ 0.0252 µM); MIC [27]: 0.39 µg/mL (≈ 0.491 µM)
CC[C@H]1OC(=O)[C@H](C)C(=O)[C@H](C)[C@@H](O[C@@H]2O[C@H](C)C[C@H](N(C)C)[C@H]2O)[C@](C)(OC/C=C/c2ccc(-c3cccnc3)s2)C[C@@H](C)C(=O)[C@H](C)[C@H]2NC(=O)O[C@@]21C [Example 68] | > 100 | 0.05 (≈ 0.0627 µM) | > 100 | 100 (≈ 125 µM) | 0.39 (≈ 0.489 µM) | 2 (≈ 2.51 µM) | 0.39 (≈ 0.489 µM) | 0.02 (≈ 0.0251 µM) | 3.1 (≈ 3.88 µM) | 0.05 (≈ 0.0627 µM) | > 100 | > 100 | 6.2 (≈ 7.77 µM) | 0.2 (≈ 0.251 µM) | 0.39 (≈ 0.489 µM) | 0.39 (≈ 0.489 µM) | 0.39 (≈ 0.489 µM) | 0.39 (≈ 0.489 µM) | 0.125 (≈ 0.157 µM) | 0.125 (≈ 0.157 µM) | MIC [21]: ≤ 0.004 µg/mL; MIC [22]: ≤ 0.004 µg/mL; MIC [23]: 0.02 µg/mL (≈ 0.0251 µM); MIC [24]: 0.02 µg/mL (≈ 0.0251 µM); MIC [25]: > 100 µg/mL; MIC [26]: 0.05 µg/mL (≈ 0.0627 µM); MIC [27]: 6.2 µg/mL (≈ 7.77 µM)
CC[C@H]1OC(=O)[C@H](C)C(=O)[C@H](C)[C@@H](O[C@@H]2O[C@H](C)C[C@H](N(C)C)[C@H]2O)[C@](C)(OCC#Cc2ccc(-c3cccc(C)c3)s2)C[C@@H](C)C(=O)[C@H](C)[C@H]2NC(=O)O[C@@]21C [Example 18] | > 100 | 0.1 (≈ 0.124 µM) | > 100 | > 100 | 0.78 (≈ 0.964 µM) | 2 (≈ 2.47 µM) | 0.2 (≈ 0.247 µM) | 0.02 (≈ 0.0247 µM) | 0.1 (≈ 0.124 µM) | 0.1 (≈ 0.124 µM) | 12.5 (≈ 15.5 µM) | 25 (≈ 30.9 µM) | 0.1 (≈ 0.124 µM) | 0.1 (≈ 0.124 µM) | 0.1 (≈ 0.124 µM) | 0.1 (≈ 0.124 µM) | 0.2 (≈ 0.247 µM) | 0.2 (≈ 0.247 µM) | 0.5 (≈ 0.618 µM) | 2 (≈ 2.47 µM) | MIC [21]: 0.06 µg/mL (≈ 0.0742 µM); MIC [22]: 0.03 µg/mL (≈ 0.0371 µM); MIC [23]: 0.02 µg/mL (≈ 0.0247 µM); MIC [24]: 0.01 µg/mL (≈ 0.0124 µM); MIC [25]: 1.56 µg/mL (≈ 1.93 µM); MIC [26]: 0.02 µg/mL (≈ 0.0247 µM); MIC [27]: 0.2 µg/mL (≈ 0.247 µM)
CC[C@H]1OC(=O)[C@H](C)C(=O)[C@H](C)[C@@H](O[C@@H]2O[C@H](C)C[C@H](N(C)C)[C@H]2O)[C@](C)(OC/C=C/c2ccc(-c3ccco3)s2)C[C@@H](C)C(=O)[C@H](C)[C@H]2NC(=O)O[C@@]21C [Example 77] | > 100 | 0.05 (≈ 0.0635 µM) | 50 (≈ 63.5 µM) | 50 (≈ 63.5 µM) | 0.39 (≈ 0.496 µM) | 8 (≈ 10.2 µM) | 0.2 (≈ 0.254 µM) | 0.02 (≈ 0.0254 µM) | 0.78 (≈ 0.991 µM) | 0.2 (≈ 0.254 µM) | 100 (≈ 127 µM) | 100 (≈ 127 µM) | 0.1 (≈ 0.127 µM) | 0.1 (≈ 0.127 µM) | 0.1 (≈ 0.127 µM) | 0.1 (≈ 0.127 µM) | 0.1 (≈ 0.127 µM) | 0.1 (≈ 0.127 µM) | 0.25 (≈ 0.318 µM) | 16 (≈ 20.3 µM) | MIC [21]: ≤ 0.004 µg/mL; MIC [22]: ≤ 0.004 µg/mL; MIC [23]: 0.02 µg/mL (≈ 0.0254 µM); MIC [24]: 0.01 µg/mL (≈ 0.0127 µM); MIC [25]: 12.5 µg/mL (≈ 15.9 µM); MIC [26]: 0.05 µg/mL (≈ 0.0635 µM); MIC [27]: 0.2 µg/mL (≈ 0.254 µM)
